This note sets out measurements from patent publication US4895973A, “Substituted glutaric acid lactones in the treatment of hyperlipidemia” (G. D. Searle & Company, priority 1988, dated 1990).

The test addresses T1, rat liver microsomal HMGCoA reductase (Rattus norvegicus, UniProt P51639).
T1 construct: rat liver microsomal HMGCoA reductase; from tissue; host or cells: rat liver microsomes
T1 sequence (P51639 1-887): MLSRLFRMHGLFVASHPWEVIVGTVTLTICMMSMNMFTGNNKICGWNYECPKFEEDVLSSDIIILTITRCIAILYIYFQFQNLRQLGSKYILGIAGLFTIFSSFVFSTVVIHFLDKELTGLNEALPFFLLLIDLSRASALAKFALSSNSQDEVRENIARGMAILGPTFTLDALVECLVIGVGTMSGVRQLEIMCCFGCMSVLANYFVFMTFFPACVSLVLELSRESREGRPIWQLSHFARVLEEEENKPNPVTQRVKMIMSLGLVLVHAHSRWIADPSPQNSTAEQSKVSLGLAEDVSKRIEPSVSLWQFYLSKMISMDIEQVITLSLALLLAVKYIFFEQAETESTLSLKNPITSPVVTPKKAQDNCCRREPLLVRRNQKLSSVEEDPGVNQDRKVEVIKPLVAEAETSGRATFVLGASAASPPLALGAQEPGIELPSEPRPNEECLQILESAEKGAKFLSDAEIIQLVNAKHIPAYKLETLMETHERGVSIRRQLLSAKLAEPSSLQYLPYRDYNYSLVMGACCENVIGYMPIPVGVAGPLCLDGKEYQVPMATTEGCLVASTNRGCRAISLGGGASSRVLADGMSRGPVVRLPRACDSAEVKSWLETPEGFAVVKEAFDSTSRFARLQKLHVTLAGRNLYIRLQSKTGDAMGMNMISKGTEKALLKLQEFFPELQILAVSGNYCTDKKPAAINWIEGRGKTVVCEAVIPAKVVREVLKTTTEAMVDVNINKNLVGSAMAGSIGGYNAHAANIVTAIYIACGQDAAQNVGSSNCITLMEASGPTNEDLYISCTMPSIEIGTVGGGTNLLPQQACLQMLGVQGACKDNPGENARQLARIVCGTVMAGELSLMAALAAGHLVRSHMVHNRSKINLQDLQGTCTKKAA
The test is described as follows: in vitro inhibition of rat liver microsomal HMGCoA reductase. The format is biochemical. The following applies: 40 μM 14C-HMGCoA, 15 min at 37° C., pH7.2. The protocol:
The IC50 is defined as the concentration required to inhibit the enzyme by 50% of control.
Triplicate samples are preincubated for 15 min. at 37° C. in a volume of 1 ml. […] Mevalonic acid is extracted with ether and the % ^14 C-HMGCoA incorporation determined for concurrent control and test reaction systems. Testing is done (first) with a range finding assay followed by a 4 or 5 point assay to find the IC50 value.

With `CC[C@H](C)C(=O)O[C@H]1CCC=C2C=C[C@H](C)[C@H](CC[C@@H]3C[C@@H](O)CC(=O)O3)[C@H]21` [Compactin], the IC50 (usually the concentration at which inhibition is half-maximal) was 1 µM.
